In this test the target is T1, CGRP1 receptor (Homo sapiens, UniProt O60894+Q16602).
T1 construct: SK-N-MC cells express CRLR and RAMP1, which form CGRP1 receptor; endogenous in cells; host or cells: SK-N-MC human neuroblastoma cells
Description: in vitro CGRP1 receptor mediated cAMP assay in SK-N-MC cells. The test is classed as cell-based. The method in brief:
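Human SK-N-MC neuroblastoma cells, which endogenously express CRLR/RAMP1, were plated two days before assay and preincubated in plasma-free medium for 15 minutes at room temperature. Cells were then lysed for 30 minutes at 37° C, and cAMP in the lysates was quantified by competitive cAMP-AP chemiluminescent ELISA.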
In general terms: Cyclic AMP is a second messenger, typically raised through Gs and lowered through Gi signalling.

Setting [1] is: Table 2C, unconjugated peptide, read-out: Peptide IC50.
[2] abbreviates: Table 3, unconjugated CGRP peptide analogs, n = 2-4, read-out: IC50.

These results are taken from patent US8168592B2 (Amgen Inc., priority 2005, dated 2012).

Read-outs that look alike come from different tables or passages of the source. Bridge positions count the residues as written; N and C are the ends. Square brackets hold non-standard residues; d marks the D form. Ends that are not written are not given here. Peptide text beside a SMILES is read from it. Bip = N[C@@H](Cc1ccc(-c2ccccc2)cc1)C(=O)O; Oic = O=C(O)[C@@H]1C[C@@H]2CCCC[C@@H]2N1; hArg = N=C(N)NCCCC[C@H](N)C(=O)O; Tic = O=C(O)[C@@H]1Cc2ccccc2CN1; Cit = NC(=O)NCCC[C@H](N)C(=O)O; PEG = not defined here

T1 sequence (Q16602 23-461): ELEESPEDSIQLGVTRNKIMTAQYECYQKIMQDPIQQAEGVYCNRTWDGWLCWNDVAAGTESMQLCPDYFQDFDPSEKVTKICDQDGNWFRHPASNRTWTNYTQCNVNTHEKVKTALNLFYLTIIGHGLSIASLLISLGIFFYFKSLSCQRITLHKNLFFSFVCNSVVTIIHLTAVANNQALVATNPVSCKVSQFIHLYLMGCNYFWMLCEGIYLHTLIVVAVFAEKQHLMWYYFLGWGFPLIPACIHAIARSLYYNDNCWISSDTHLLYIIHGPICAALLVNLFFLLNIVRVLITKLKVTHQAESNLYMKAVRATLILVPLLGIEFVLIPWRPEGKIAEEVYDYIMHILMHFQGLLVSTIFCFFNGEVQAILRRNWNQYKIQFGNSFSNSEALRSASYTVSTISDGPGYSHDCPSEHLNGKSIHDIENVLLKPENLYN
T1 sequence (O60894 27-148): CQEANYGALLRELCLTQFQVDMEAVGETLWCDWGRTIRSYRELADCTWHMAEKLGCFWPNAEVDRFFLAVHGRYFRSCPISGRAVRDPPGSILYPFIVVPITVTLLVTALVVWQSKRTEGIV

The IC50 is the concentration at which inhibition is half-maximal. On to `CC(=O)N[C@@H](Cc1c[nH]c2ccccc12)C(=O)N[C@H](C(=O)N[C@H](C(=O)N[C@@H](Cc1c[nH]cn1)C(=O)N[C@@H](CCCNC(N)=O)C(=O)N[C@@H](CC(C)C)C(=O)N[C@@H](C)C(=O)NCC(=O)N[C@@H](CC(C)C)C(=O)N[C@@H](CC(C)C)C(=O)N[C@@H](CO)C(=O)N[C@@H](CCCNC(N)=O)C(=O)N[C@@H](CO)C(=O)NCC(=O)NCC(=O)N[C@H](C(=O)N[C@H](C(=O)N[C@@H](CCCCNC(=N)N)C(=O)N[C@@H](CCCCN)C(=O)N[C@@H](CC(N)=O)C(=O)N[C@@H](Cc1ccccc1)C(=O)N[C@H](C(=O)N1[C@H](C(=O)N[C@H](C(=O)N[C@@H](CC(=O)O)C(=O)N[C@H](C(=O)NCC(=O)N2CCC[C@H]2C(=O)N[C@@H](Cc2ccc(-c3ccccc3)cc2)C(=O)N[C@@H](C)C(=O)N[C@@H](Cc2ccccc2)C(N)=O)C(C)C)[C@@H](C)O)C[C@@H]2CCCC[C@@H]21)C(C)C)C(C)C)C(C)C)[C@@H](C)O)C(C)C` [compound 134] (Ac-WVTH[Cit]LAGLLS[Cit]SGGVV[hArg]KNFV[Oic]TDVGP[Bip]AF-NH2), for which the IC50 (Table 2A, read-out: IC50) came to 3.85 nM. With `CC(=O)N[C@@H](Cc1c[nH]c2ccccc12)C(=O)N[C@H](C(=O)N[C@H](C(=O)N[C@@H](Cc1cnc[nH]1)C(=O)N[C@@H](CCCCNC(=N)N)C(=O)N[C@@H](CC(C)C)C(=O)N[C@@H](C)C(=O)NCC(=O)N[C@@H](CC(C)C)C(=O)N[C@@H](CC(C)C)C(=O)N[C@@H](CO)C(=O)N[C@@H](CCCCNC(=N)N)C(=O)N[C@@H](CO)C(=O)NCC(=O)NCC(=O)N[C@H](C(=O)N[C@H](C(=O)N[C@@H](CCCNC(=N)N)C(=O)N[C@@H](CCCCN)C(=O)N[C@@H](CC(N)=O)C(=O)N[C@@H](Cc1ccccc1)C(=O)N[C@H](C(=O)N1CCC[C@H]1C(=O)N[C@H](C(=O)N[C@@H](CC(=O)O)C(=O)N[C@H](C(=O)NCC(=O)N1CCC[C@H]1C(=O)N[C@@H](Cc1ccccc1)C(=O)N[C@@H](C)C(=O)N[C@@H](Cc1ccccc1)C(N)=O)C(C)C)[C@@H](C)O)C(C)C)C(C)C)C(C)C)[C@@H](C)O)C(C)C` [compound 784], the IC50 (Table 2D, read-out: IC50) is 2.1 nM. As to “SEQ ID NO:3 (CGGGGGGGVTHRLAGLLSRSGGVVKNNFVPTDVGPFAF-NH2)”, the “improved potency relative to native CGRP(8-37) (SEQ ID NO:1)” value (cAMP assay) is reported as “more than 6 fold”. “SEQ ID NO:9 (Ac-WVTHRLAGLLSRSGGVVCNNFVPTDVGPFAF-NH2)”: the “antagonist activity in cAMP assay, in words” value (“antagonist activity … in words” below) is recorded as “somewhat less active”. Turning to “Ac-WVTHQLAGLLSQSGGVVRKNFVPTDVGPFAF-NH2 [compound 857]”, the IC50 under setting [1] stood at 0.53 nM. Turning to “SEQ ID NO:38 (Ac-WVTHRLAGLLSQSGGVVRK(PEG)NFVPTDVGPFAF-NH2; reading uncertain)”, the “more potent than the thioether-linked PEGylated analog SEQ ID NO:36” value (amine linkage) is “more than 42 fold”.

Consider “SEQ ID NO:16 (Ac-WVTHRLAGLLSRSGGVVRK(PEG)NFVPTDVGPFAF-NH2; reading uncertain)”, for which, for the setting “cAMP assay”, the “improved potency relative to native CGRP(8-37) (SEQ ID NO:1)” value is recorded as “about 12 fold” and the “loss in antagonist activity on PEGylation relative to the unconjugated parent peptide” value was “three”. Consider “SEQ ID NO:27 (WVTHXLAGLLSRSGGVVRKNFVPTDVGPFAF; CGRP peptide; MOD_RES (1)..(1): …ON; MISC_FEATURE (5)..(5): xaa=citrulline; MOD_RES (31)..(31): AMIDATION)”, for which the “antagonist activity … in words” value is “well tolerated”. `CC(=O)N[C@@H](Cc1c[nH]c2ccccc12)C(=O)N[C@H](C(=O)N[C@H](C(=O)N[C@@H](Cc1c[nH]cn1)C(=O)N[C@@H](CCCNC(=N)N)C(=O)N[C@@H](CC(C)C)C(=O)N[C@@H](C)C(=O)NCC(=O)N[C@@H](CC(C)C)C(=O)N[C@@H](C)C(=O)N[C@@H](CO)C(=O)N[C@@H](CCCNC(N)=O)C(=O)N[C@@H](CO)C(=O)NCC(=O)NCC(=O)N[C@H](C(=O)N[C@H](C(=O)N[C@@H](CCCNC(=N)N)C(=O)N[C@@H](CCCCN)C(=O)N[C@@H](CC(N)=O)C(=O)N[C@@H](Cc1ccccc1)C(=O)N[C@H](C(=O)N1CCC[C@H]1C(=O)N[C@H](C(=O)N[C@@H](CC(=O)O)C(=O)N[C@H](C(=O)NCC(=O)N1CCC[C@H]1C(=O)N[C@@H](Cc1ccccc1)C(=O)N[C@@H](C)C(=O)N[C@@H](Cc1ccccc1)C(N)=O)C(C)C)[C@@H](C)O)C(C)C)C(C)C)C(C)C)[C@@H](C)O)C(C)C` [compound 850] (Ac-WVTHRLAGLAS[Cit]SGGVVRKNFVPTDVGPFAF-NH2): the IC50 (Table 2D, read-out: IC50) amounted to 1.85 nM. With `CC(=O)N[C@@H](Cc1c[nH]c2ccccc12)C(=O)N[C@H](C(=O)N[C@H](C(=O)N[C@@H](Cc1c[nH]cn1)C(=O)N[C@@H](CCCNC(N)=O)C(=O)N[C@@H](CC(C)C)C(=O)N[C@@H](C)C(=O)NCC(=O)N[C@@H](CC(C)C)C(=O)N[C@@H](CC(C)C)C(=O)N[C@@H](CO)C(=O)N[C@@H](CCCNC(N)=O)C(=O)N[C@@H](CO)C(=O)NCC(=O)NCC(=O)N[C@H](C(=O)N[C@H](C(=O)N[C@@H](CCCCNC(=N)N)C(=O)N[C@@H](CCCCN)C(=O)N[C@@H](CC(N)=O)C(=O)N[C@@H](Cc1ccccc1)C(=O)N[C@H](C(=O)N1CCC[C@H]1C(=O)N[C@H](C(=O)N[C@@H](CC(=O)O)C(=O)N[C@H](C(=O)NCC(=O)N1CCC[C@H]1C(N)=O)C(C)C)[C@@H](C)O)C(C)C)C(C)C)C(C)C)[C@@H](C)O)C(C)C` [compound 656] (Ac-WVTH[Cit]LAGLLS[Cit]SGGVV[hArg]KNFVPTDVGP-NH2), under “Table 2A, read-out: IC50”, the IC50 is above 1000 nM.

For `CC(=O)N[C@@H](Cc1c[nH]c2ccccc12)C(=O)N[C@H](C(=O)N[C@H](C(=O)N[C@@H](Cc1c[nH]cn1)C(=O)N[C@@H](CCCNC(N)=O)C(=O)N[C@@H](CC(C)C)C(=O)N[C@@H](C)C(=O)NCC(=O)N[C@@H](CC(C)C)C(=O)N[C@@H](CC(C)C)C(=O)N[C@@H](CO)C(=O)N[C@@H](CCCNC(N)=O)C(=O)N[C@@H](CO)C(=O)NCC(=O)NCC(=O)N[C@H](C(=O)N[C@H](C(=O)N[C@@H](CCCCNC(=N)N)C(=O)N[C@@H](CCCCN)C(=O)N[C@@H](CC(N)=O)C(=O)N[C@@H](Cc1ccc(I)cc1)C(=O)N[C@H](C(=O)N1CCC[C@H]1C(=O)N[C@H](C(=O)N[C@@H](CC(=O)O)C(=O)N[C@H](C(=O)NCC(=O)N1CCC[C@H]1C(=O)N[C@@H](Cc1ccc(I)cc1)C(=O)N[C@@H](C)C(=O)N[C@@H](Cc1ccccc1)C(N)=O)C(C)C)[C@@H](C)O)C(C)C)C(C)C)C(C)C)[C@@H](C)O)C(C)C` [compound 928], the IC50 under setting [1] was found to be 1.16 nM. In the case of “SEQ ID NO:24 (WVTHRLAGLLSXSGGVVRKNFVPTDVGPFAF; CGRP peptide; MOD_RES (1)..(1): …ON; MISC_FEATURE (12)..(12): xaa=homoarginine; MISC_FEATURE (19)..(19): PEGylated; MOD_RES (31)..(31): AMIDATION)”, the “antagonist activity … in words” value is on record as “retaining their CGRP1 receptor antagonist activity”. In turn, `CC(=O)N[C@@H](Cc1c[nH]c2ccccc12)C(=O)N[C@H](C(=O)N[C@H]1CCC(=O)NCCCC[C@@H](C(=O)NCC(=O)N[C@@H](CC(C)C)C(=O)N[C@@H](CC(C)C)C(=O)N[C@@H](CO)C(=O)N[C@@H](CCCNC(N)=O)C(=O)N[C@@H](CO)C(=O)NCC(=O)NCC(=O)N[C@H](C(=O)N[C@H](C(=O)N[C@@H](CCCCNC(=N)N)C(=O)N[C@@H](CCCCN)C(=O)N[C@@H](CC(N)=O)C(=O)N[C@@H](Cc2ccccc2)C(=O)N[C@H](C(=O)N2CCC[C@H]2C(=O)N[C@H](C(=O)N[C@@H](CC(=O)O)C(=O)N[C@H](C(=O)NCC(=O)N2CCC[C@H]2C(=O)N[C@@H](Cc2ccccc2)C(=O)N[C@@H](C)C(=O)N[C@@H](Cc2ccccc2)C(N)=O)C(C)C)[C@@H](C)O)C(C)C)C(C)C)C(C)C)NC(=O)[C@H](CC(C)C)NC(=O)[C@H](CCCNC(=N)N)NC(=O)[C@H](Cc2c[nH]cn2)NC1=O)C(C)C` [compound 906] (Ac-WVEHRLKGLLS[Cit]SGGVV[hArg]KNFVPTDVGPFAF-NH2; lactam 3-7) showed an IC50 (Peptide IC50, Table 2C, unconjugated peptide) of 1.15 nM. In the case of “Ac-WVTHRLAGLLSRSGGVVCNNFVPTDVGPFAF-NH2 [compound 9]”, the IC50 under setting [2] is 2.15 nM. As for `CC(=O)N[C@@H](Cc1c[nH]c2ccccc12)C(=O)N[C@H](C(=O)N[C@H](C(=O)N[C@@H](Cc1cnc[nH]1)C(=O)N[C@@H](CCCNC(N)=O)C(=O)N[C@@H](CC(C)C)C(=O)N[C@@H](C)C(=O)NCC(=O)N[C@@H](CC(C)C)C(=O)N[C@@H](CC(C)C)C(=O)N[C@@H](CO)C(=O)N[C@@H](CCCNC(N)=O)C(=O)N[C@@H](CO)C(=O)NCC(=O)NCC(=O)N[C@H](C(=O)N[C@H](C(=O)N[C@@H](CCCCN=C(N)N)C(=O)N[C@@H](CCCCN)C(=O)N[C@@H](CC(N)=O)C(=O)N[C@@H](Cc1ccccc1)C(=O)N[C@H](C(=O)N1CCC[C@H]1C(=O)N[C@H](C(=O)N[C@@H](CC(=O)O)C(=O)N[C@H](C(=O)NCC(=O)N1CCC[C@H]1C(=O)N1Cc2ccccc2C[C@H]1C(=O)N[C@@H](C)C(=O)N[C@@H](Cc1ccccc1)C(N)=O)C(C)C)[C@@H](C)O)C(C)C)C(C)C)C(C)C)[C@@H](C)O)C(C)C` [compound 131] (Ac-WVTH[Cit]LAGLLS[Cit]SGGVV[hArg]KNFVPTDVGP[Tic]AF-NH2), under “Table 2A, read-out: IC50”, the IC50 came to 89.9 nM. As to `CC(=O)N[C@@H](Cc1c[nH]c2ccccc12)C(=O)N[C@H](C(=O)N[C@H](C(=O)N[C@@H](Cc1c[nH]cn1)C(=O)N[C@@H](CCCCNC(=N)N)C(=O)N[C@@H](CC(C)C)C(=O)N[C@H]1CCC(=O)NCCCC[C@@H](C(=O)N[C@@H](CCCNC(N)=O)C(=O)N[C@@H](CO)C(=O)NCC(=O)NCC(=O)N[C@H](C(=O)N[C@H](C(=O)N[C@@H](CCCCNC(=N)N)C(=O)N[C@@H](CCCCN)C(=O)N[C@@H](CC(N)=O)C(=O)N[C@@H](Cc2ccccc2)C(=O)N[C@H](C(=O)N2CCC[C@H]2C(=O)N[C@H](C(=O)N[C@@H](CC(=O)O)C(=O)N[C@H](C(=O)NCC(=O)N2[C@H](C(=O)N[C@@H](Cc3ccccc3)C(=O)N[C@@H](C)C(=O)N[C@@H](Cc3ccccc3)C(N)=O)C[C@@H]3CCCC[C@@H]32)C(C)C)[C@@H](C)O)C(C)C)C(C)C)C(C)C)NC(=O)[C@H](CC(C)C)NC(=O)[C@H](CC(C)C)NC(=O)CNC1=O)[C@@H](C)O)C(C)C` [compound 942] (Ac-WVTH[hArg]LEGLLK[Cit]SGGVV[hArg]KNFVPTDVG[Oic]FAF-NH2; lactam 7-11), the IC50 under setting [1] was determined as 0.83 nM. As to “H-CGGGGGGGVTHRLAGLLSRSGGVVKNNFVPTDVGPFAF-NH2 [compound 3]”, the IC50 under setting [2] worked out at 0.72 nM.
